According to patent publication US20210205264A1, “USE OF DELTA-TOCOTRIENOL FOR TREATING CANCER” (H. LEE MOFFITT CANCER CENTER & RESEARCH INSTITUTE INC., priority 2018, published 2021):

Tests used:
HT-29 = assay: Apoptosis induction in HT-29; assay type: cell-based, human
ApcMin/+ mice = assay: Adenoma (intestinal polyp) formation in ApcMin/+ mice; assay type: in vivo
Source text: FIGS. 1A and 1B show the number of intestinal polyps (FIG. 1A) and H&E staining of polyps (FIG. 1B) in ApcMin/+ mice treated with vehicle (V), aspirin (Asp), d-T3, and combination of aspirin+d-T3. Black dots in FIG. 1B point out polyps in the intestine. Although substantial preclinical evidence exists regarding the preventive activity of d-T3 and g-T3 in various types of cancers, there is no report of d-T3 prevention of colon cancer despite evidence of activity in colon cell lines and xenograft models. […] Treatment with aspirin alone reduced adenoma formation by 38%, and treatment with d-T3 alone reduced adenoma formation by 44%, while treatment with the combination of aspirin and d-T3 reduced adenoma formation by 58%.

MiaPaCa-2 cell = MiaPaCa-2 cell viability at increasing concentrations; assay type: cell-based, human
β-catenin = β-catenin immunofluorescence and Western blot in CCSCs; assay type: cell-based, human
Source text: FIGS. 9A, 9B, 9C, and 9D show quantification of β-catenin in the nucleus and cytoplasm of CCSCs with confocal microscopy (FIGS. 9A & 9B) after treatment with vehicle, aspirin, d-T3, and aspirin+d-T3.
As noted above, stability of the β-catenin complex by inactivation of APC leads to stabilization and nuclear translocation of β-catenin and to transcriptional activation of β-catenin target genes such as c-Myc and cyclin D1. […] Furthermore, d-T3 inhibition of CCSCs is associated with the downregulation of β-catenin, c-Myc, cyclin D1, and survivin as measured by Western blot in CCSCs (FIG. 9D).

Structure (SMILES): CC(C)=CCC/C(C)=C/CC/C(C)=C/CC[C@]1(C)CCc2cc(O)cc(C)c2O1 [d-T3, δ-tocotrienol]
- apoptosis (HT-29): significantly induced apoptosis
- reduced adenoma formation (ApcMin/+ mice): 44%
- cell killing at 100 μM concentration (MiaPaCa-2 cell; 100 μM): killing almost all cells
- effect on cell viability (MiaPaCa-2 cell; increasing concentrations): most potent
- β-catenin, c-Myc, cyclin D1, and survivin by Western blot (β-catenin): downregulation
- amount of β-catenin translocated to the nucleus (β-catenin; immunofluorescence staining): significantly decreased
